# How the values were obtained:
# in vitro = details: human, WI38 human lung fibroblast cells
# L1210FR = details: for differences in IC50 values against the three cell lines: L1210FR, L1210, WI38, at most
# L1210 = assay: cells; details: Mus musculus, L1210, 72 h, read-out: Cytotoxicities (IC50), L1210
# [1] = taxoid released from first-generation mAb-taxoid DDS; cited from earlier work
# L1210FR cells = assay: Internalization of biotin-FITC probe 2 by CFM and flow cytometry; type: cell-based, murine; details: 100 nM
compound,measurement,setting,value
"CC(=O)O[C@H]1C(=O)[C@@]2(C)[C@H]([C@H](OC(=O)c3ccccc3)[C@]3(O)C[C@H](OC(=O)[C@H](O)[C@@H](NC(=O)c4ccccc4)c4ccccc4)C(C)=C1C3(C)C)[C@]1(OC(C)=O)CO[C@@H]1C[C@@H]2O [paclitaxel, reference compound]",IC50 at 72 h,in vitro,157 nM
same,differences in IC50 values against the three cell lines,L1210FR,less than 45%
same,IC50,"L1210FR; mouse, 72 h",121 nM
same,IC50,L1210,151 nM
SB-T-1214-fluorescein [compound 24],differences in IC50 values against the three cell lines,L1210FR,less than 45%
same,times less potent than the parent SB-T-1214,L1210FR; against L1210FR,ca. 9 times
CC(=O)O[C@@]12CO[C@@H]1C[C@H](O)[C@@]1(C)C(=O)[C@H](OC(=O)C3CC3)C3=C(C)[C@@H](OC(=O)[C@H](O)[C@H](C=C(C)C)NC(=O)OC(C)(C)C)C[C@@](O)([C@@H](OC(=O)c4ccccc4)[C@H]21)C3(C)C [SB-T-1214],times more potent than paclitaxel,L1210FR; against L1210FR,ca. 13 times
SB-T-12136-SH,"cytotoxicity, times weaker than the parent taxoid (SB-T-1213)",[1],8 times
biotin-FITC [compound 2],diminished fluorescence in the cells at 4 °C,"L1210FR cells; 4 °C, 3 h versus 37 °C, by flow cytometry",ca. 6 times
same,internalization into L1210FR cells (CFM),"L1210FR cells; 37 °C, 3 h",efficient internalization
same,decrease in fluorescence after pre-incubation with excess free biotin,"L1210FR cells; 37 °C, 3 h, biotin 2 mM pre-incubated 1 h",ca. 4.5 times
same,decrease in fluorescence inside the cells in the presence of NaN3,"L1210FR cells; 3 h, 37 °C, 0.05 % (w/v) NaN3",ca. 4 times
